Measurements reported in US20060100431A1, “Biologically active compounds” (Amura Therapeutics Limited, priority 2002, published 2006).
pKi: −log10 of the molar value.

How the values were obtained:
Assay type in all cases: biochemical
human cathepsin L = target: T1, human cathepsin L (Homo sapiens, UniProt P07711); test: Cathepsin L peptidase activity assay (Ki); conditions: read-out: Ki, inhibitors of cathepsin L
T1 construct: purchased CN Biosciences
Procedure, shortened: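 Human cathepsin L at 1 nM with Ac-Phe-Arg-AMC at its KM^app (~20 μM) in 10 mM bis-tris-propane pH 6.5, 1 mM EDTA, 5 mM 2-mercaptoethanol, 1 mM CaCl2, DMSO <1%, 25±1° C. Reaction enzyme-initiated; AMC fluorescence (ex 365/em 450 nm) monitored over time.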

Wild-type cruzipain = Wild-type cruzipain (Trypanosoma cruzi, UniProt P25779); test: Trypanosoma cruzi cruzipain peptidase activity assay (Ki); conditions: read-out: Ki, inhibitors of cruzain and cruzipains
Procedure, shortened: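 Native cruzipain from T. cruzi Dm28 epimastigotes, 2.5 nM, in 100 mM sodium phosphate pH 6.75 with 1 mM EDTA and 10 mM L-cysteine, 25 °C, DMSO <1%. Rates taken from continuous fluorogenic substrate read; Ki by regression assuming reversible pure-competitive inhibition.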

CPB2.8ΔCTE = target: T2, CPB2.8ΔCTE (Leishmania mexicana, UniProt P36400); test: Leishmania mexicana cysteine protease B (CPB) peptidase activity assay (Ki); conditions: Ki, inhibitors of Leismania mexicana CPB protease
T2 construct: Wild-type recombinant CPB without the C-terminal extention (i.e. CPB2.8ΔCTE); Dr. Jeremy Mottram (Wellcome Centre for Molecular Parasitology, University of Glasgow)
Procedure, shortened: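 Recombinant CPB2.8ΔCTE (0.25 nM) was assayed in 100 mM sodium acetate pH 5.5 with 1 mM EDTA, 200 mM NaCl and 10 mM DTT at 25 °C, DMSO <1%, enzyme added to start. Rates were taken from continuous fluorescence slopes; apparent Ki was fitted assuming reversible, pure-competitive inhibition.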

Bovine cathepsin S = target: T3, Bovine cathepsin S (Bos taurus, UniProt P25326); test: Cathepsin S peptidase activity assay, bovine enzyme (Ki); conditions: species of cathepsin S not given; read-out: Ki, inhibitors of cathepsin S
T3 construct: purchased CN Biosciences
Experimental: Unless otherwise stated, all general chemicals and biochemicals were purchased from either the Sigma Chemical Company, Poole, Dorset, U.K or from Fisher Scientific UK, Loughborough, Leicestershire, U.K. Absorbance assays were carried out in flat-bottomed 96-well plates (Spectra; Greiner Bio-One Ltd., Stonehouse, Gloucestershire, U.K.) using a SpectraMax PLUS384 plate reader (Molecular Devices, Crawley, U.K.). Fluorescence high throughput assays were carried out in either 384-well microtitre plates (Corning Costar 3705 plates, Fisher Scientific) or 96-well ‘U’ bottomed Microfluor W1 microtitre plates (Thermo Labsystems, Ashford, Middlesex, U.K.). Fluorescence assays were monitored using a SpectraMax Gemini fluorescence plate reader (Molecular Devices). For substrates employing either a 7-amino-4-methylcoumarin (AMC) or a 7-amino-4-trifluoromethylcoumarin (AFC) fluorophore, assays were monitored at an excitation wavelength of 365 nm and an emission wavelength of 450 nm and the fluorescence plate reader calibrated with AMC. For substrates employing a 3-amino-benzoyl (Abz) fluorophore, assays were monitored at an excitation wavelength of 310 nm and an emission wavelength of 445 nm; the fluorescence plate reader calibrated with 3-amino-benzamide (Fluka). Unless otherwise indicated, all the peptidase substrates were purchased from Bachem UK, St Helens, Merseyside, UK. Substrates utilizing fluorescence resonance energy transfer methodology (i.e. FRET-based substrates) were synthesized at Incenta Limited using published methods (Atherton & Sheppard, Solid Phase Peptide Synthesis, IRL Press, Oxford, U.K, 1989) and employed Abz (2-aminobenzoyl) as the fluorescence donor and 3-nitro-tyrosine [Tyr(NO2)] as the fluorescence quencher (Meldal, M. and Breddam, K., Anal. Biochem, 195, 141-147, 1991). Hydroxyethylpiperazine ethanesulfonate (HEPES), tris-hydroxylmethyl aminomethane (tris) base, bis-tris-propane and all the biological detergents (e.g. CHAPS, zwittergents, etc.) were purchased from CN Biosciences UK, Beeston, Nottinghamshire, U.K. Glycerol was purchased from Amersham Pharmacia Biotech, Little Chalfont, Buckinghamshire, U.K. Stock solutions of substrate or inhibitor were made up to 10 mM in 100% dimethylsulfoxide (DMSO) (Rathburns, Glasgow, U.K.) and diluted as appropriately required. In all cases the DMSO concentration in the assays was maintained at less than 1% (vol./vol.).
Assay protocols were based on literature precedent (Table 4; Barrett, A. J., Rawlings, N. D. and Woessner, J. F., 1998, Handbook of Proteolytic Enzymes, Academic Press, London and references therein) and modified as required to suit local assay protocols. Enzyme was added as required to initiate the reaction and the activity, as judged by the change in fluorescence upon conversion of substrate to product, was monitored over time. All assays were carried out at 25±1° C.
Bovine cathepsin S, human cathepsin L, human cathepsin H and human cathepsin B were obtained from CN Biosciences. Recombinant human cathepsin S, human cathepsin K and human cathepsin X were obtained from Dr. Boris Turk (Josef Stefan Institute, Ljubljana, Slovenia). Unless otherwise stated, all peptidase activity assays were carried out in 10 mM bis-tris-propane (BTP), pH 6.5 containing 1 mM EDTA, 5 mM 2-mercaptoethanol and 1 mM CaCl2. Human cathepsin H activity assays were carried out in 10 mM BTP pH 6.5, 142 mM NaCl2, 1 mM CaCl2, 1 mM EDTA, 1 mM DTT, 0.035 mM Zwittergent 3-16. Human cathepsin K assays were carried out in 100 mM sodium acetate; pH 5.5 containing 20 mM L-cysteine and 1 mM EDTA (Bossard, M. J., et. al., J. Biol. Chem., 21, 12517-12524, 1996). Human cathepsin X assays were carried out in 100 mM sodium acetate; pH 5.5 containing 20 mM L-cysteine; 0.05% (w/v) Brij 35 and 1 mM EDTA (Santamaria, I., et. al., J. Biol. Chem., 273, 16816-16823, 1998; Klemencic, J, et al., Eur. J. Biochem., 267, 5404-5412, 2000).

T1 sequence (P07711 114-333): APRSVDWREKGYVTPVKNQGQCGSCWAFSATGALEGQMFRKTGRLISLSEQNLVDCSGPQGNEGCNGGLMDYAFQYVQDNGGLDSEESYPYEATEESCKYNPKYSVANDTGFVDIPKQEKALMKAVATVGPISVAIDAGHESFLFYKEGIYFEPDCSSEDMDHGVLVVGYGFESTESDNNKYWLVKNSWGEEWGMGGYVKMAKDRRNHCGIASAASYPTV
Chain of Wild-type cruzipain (P25779 whole entry): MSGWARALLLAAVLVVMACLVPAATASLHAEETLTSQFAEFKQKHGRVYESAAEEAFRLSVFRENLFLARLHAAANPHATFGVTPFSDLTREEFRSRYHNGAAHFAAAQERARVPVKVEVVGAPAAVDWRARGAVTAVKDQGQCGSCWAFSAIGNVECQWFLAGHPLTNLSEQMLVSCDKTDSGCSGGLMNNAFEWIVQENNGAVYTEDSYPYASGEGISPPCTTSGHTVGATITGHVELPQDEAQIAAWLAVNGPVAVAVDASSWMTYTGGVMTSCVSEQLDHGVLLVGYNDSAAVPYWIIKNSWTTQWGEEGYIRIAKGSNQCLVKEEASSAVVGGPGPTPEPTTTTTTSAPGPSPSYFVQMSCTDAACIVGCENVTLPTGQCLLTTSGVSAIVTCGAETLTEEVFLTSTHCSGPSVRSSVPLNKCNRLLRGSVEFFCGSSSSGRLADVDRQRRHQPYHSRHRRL
T2 sequence (P36400 126-343, stated change not applied): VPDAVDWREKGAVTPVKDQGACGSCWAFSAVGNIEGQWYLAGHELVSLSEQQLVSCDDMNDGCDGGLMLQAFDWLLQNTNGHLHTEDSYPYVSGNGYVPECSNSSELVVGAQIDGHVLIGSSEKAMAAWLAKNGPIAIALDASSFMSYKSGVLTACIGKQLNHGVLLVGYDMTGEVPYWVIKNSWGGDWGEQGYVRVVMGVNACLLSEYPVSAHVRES
T3 sequence (P25326 115-331): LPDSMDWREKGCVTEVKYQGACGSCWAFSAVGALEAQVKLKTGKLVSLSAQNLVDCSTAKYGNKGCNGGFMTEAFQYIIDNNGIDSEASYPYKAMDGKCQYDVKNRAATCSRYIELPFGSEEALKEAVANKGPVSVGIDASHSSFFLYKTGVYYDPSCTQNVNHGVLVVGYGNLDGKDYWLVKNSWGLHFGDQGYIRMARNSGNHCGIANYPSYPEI

Row | SMILES | pKi (human cathepsin L) | pKi (Wild-type cruzipain) | pKi (CPB2.8ΔCTE) | pKi (Bovine cathepsin S)
1 | CC(C)C[C@H](NC(=O)c1ccc(N(C)C)cc1)C(=O)N1CC[C@@H]2[C@H]1C(=O)CN2C(=O)[C@@H]1CCCN1C(=O)OCc1ccccc1 [Example 154, (3aS,6aR)-(2S)-2-{4-[(2S)-2-(4-Dimethylamino-benzoylamino)-4-methyl-pentanoyl]-3-oxo-hexahydro-pyrrolo[3,2-b]pyrrole-1-carbonyl}-pyrrolidine-1-carboxylic acid benzyl ester] | > 5.30 | > 5.30 | > 5.30 | > 5.30
2 | CC(C)C[C@H](NC(=O)OCc1ccccc1)C(=O)N1CC(=O)[C@@H]2[C@H]1CCN2C(=O)[C@H](CC(C)C)NC(=O)c1ccc(N(C)C)cc1 [Example 37, (3aS,6aR)-((1S)-1-{4-[(2S)-2-(4-Dimethylamino-benzoylamino)-4-methyl-pentanoyl]-3-oxo-hexahydro-pyrrolo[3,2-b]pyrrole-1-carbonyl}-3-methyl-butyl)-carbamic acid benzyl ester] | > 5.30 | > 5.30 | > 5.30 | > 5.30
3 | CC(C)C[C@H](NC(=O)c1ccccc1)C(=O)N1CC[C@@H]2[C@H]1C(=O)CN2C(=O)c1ccccc1 [Example 174, (3aR,6aS)-N-[(1S)-1-(4-Benzoyl-6-oxo-hexahydro-pyrrolo[3,2-b]pyrrole-1-carbonyl)-3-methyl-butyl]-benzamide] | > 5.30 | > 5.30 | > 5.30 | > 5.30
4 | CC(C)C[C@H](NC(=O)c1cc2ccccc2o1)C(=O)N1CC[C@@H]2[C@H]1C(=O)CN2C(=O)c1cccnc1 [Example 16, (3aR,6aS)-Benzofuran-2-carboxylic acid {(1S)-3-methyl-1-[6-oxo-4-(pyridine-3-carbonyl)-hexahydro-pyrrolo[3,2-b]pyrrole-1-carbonyl]-butyl}-amide] | > 5.30 | > 5.30 | > 5.30 | > 5.30
5 | Cc1c(C(=O)N[C@@H](CC(C)C)C(=O)N2CC[C@@H]3[C@H]2C(=O)CN3C(=O)c2ccccc2)oc2ccccc12 [Example 10, (3aR,6aS)-3-Methyl-benzofuran-2-carboxylic acid [(1S)-1-(4-benzoyl-6-oxo-hexahydro-pyrrolo[3,2-b]pyrrole-1-carbonyl)-3-methyl-butyl]-amide] | > 5.30 | > 5.30 |  | > 5.30
6 | CC(C)C[C@H](NC(=O)c1ccc2[nH]ccc2c1)C(=O)N1CC[C@@H]2[C@H]1C(=O)CN2C(=O)c1ccccc1 [Example 89, (3aR,6aS)-1H-Indole-5-carboxylic acid [(1S)-1-(4-benzoyl-6-oxo-hexahydro-pyrrolo[3,2-b]pyrrole-1-carbonyl)-3-methyl-butyl]-amide] | > 5.30 | > 5.30 | > 5.30 | > 5.30
7 | CC(C)C[C@H](NC(=O)c1ccc(N(C)C)cc1)C(=O)N1CC[C@@H]2[C@H]1C(=O)CN2C(=O)c1ccsc1 [Example 164, (3aR,6aS)-4-Dimethylamino-N-{(1S)-3-methyl-1-[6-oxo-4-(thiophene-3-carbonyl)-hexahydro-pyrrolo[3,2-b]pyrrole-1-carbonyl]-butyl}-benzamide] | > 5.30 | > 5.30 | > 5.30 | > 5.30
8 | CC(C)C[C@H](NC(=O)c1ccc(N(C)C)cc1)C(=O)N1CC[C@@H]2[C@H]1C(=O)CN2C(=O)[C@H](C)NC(=O)OCc1ccccc1 [Example 145, (3aS,6aR)-((1S)-2-{4-[(2S)-2-(4-Dimethylamino-benzoylamino)-4-methyl-pentanoyl]-3-oxo-hexahydro-pyrrolo[3,2-b]pyrrole-1-yl}-1-methyl-2-oxo-ethyl)-carbamic acid benzyl ester] | > 5.30 | > 5.30 | > 5.30 | > 5.30
9 | CC(C)C[C@H](NC(=O)c1ccc(CN)cc1)C(=O)N1CC[C@@H]2[C@H]1C(=O)CN2C(=O)c1ccccc1 [Example 93, (3aR,6aS)-4-Aminomethyl-N-[(1S)-1-(4-benzoyl-6-oxo-hexahydro-pyrrolo[3,2-b]pyrrole-1-carbonyl)-3-methyl-butyl]-benzamide] | > 5.30 | > 5.30 | > 5.30 | > 5.30
10 | CC(C)C[C@H](NC(=O)c1cccc(CN)c1)C(=O)N1CC[C@@H]2[C@H]1C(=O)CN2C(=O)c1ccccc1S(C)(=O)=O [Example 185, (3aR,6aS)-3-Aminomethyl-N-{(1S)-1-[4-(2-methanesulfonyl-benzoyl)-6-oxo-hexahydro-pyrrolo[3,2-b]pyrrole-1-carbonyl]-3-methyl-butyl}-benzamide] | > 5.30 | > 5.30 | > 5.30 | > 5.30
11 | CC(C)C[C@H](NC(=O)c1cnc2ccccc2n1)C(=O)N1CC[C@@H]2[C@H]1C(=O)CN2C(=O)c1ccccc1 [Example 12, (3aR,6aS)-Quinoxaline-2-carboxylic acid [(1S)-1-(4-benzoyl-6-oxo-hexahydro-pyrrolo[3,2-b]pyrrole-1-carbonyl)-3-methyl-butyl]-amide] | > 5.30 | > 5.30 |  | > 5.30
12 | CC(C)C[C@H](NC(=O)c1ccc2ccccc2n1)C(=O)N1CC[C@@H]2[C@H]1C(=O)CN2C(=O)c1ccccc1 [Example 8, (3aR,6aS)-Quinoline-2-carboxylic acid [(1S)-1-(4-benzoyl-6-oxo-hexahydro-pyrrolo[3,2-b]pyrrole-1-carbonyl)-3-methyl-butyl]-amide] | > 5.30 | > 5.30 |  | > 5.30
13 | CC(C)C[C@H](NC(=O)c1cc2ccccc2o1)C(=O)N1CC[C@@H]2[C@H]1C(=O)CN2C(=O)c1ccccc1 [Example 9, (3aR,6aS)-Benzofuran-2-carboxylic acid [(1S)-1-(4-benzoyl-6-oxo-hexahydropyrrolo[3,2-b]pyrrole-1-carbonyl)-3-methyl-butyl]-amide] | > 5.30 | > 5.30 |  | > 5.30
14 | CC(C)C[C@H](NC(=O)c1cccc(Oc2ccccc2)c1)C(=O)N1CC[C@@H]2[C@H]1C(=O)CN2C(=O)c1cccnc1 [Example 20, (3aR,6aS)-N-{(1S)-3-Methyl-1-[6-oxo-4-(pyridine-3-carbonyl)-hexahydro-pyrrolo[3,2-b]pyrrole-1-carbonyl]-butyl}-3-phenoxy-benzamide] |  | > 5.30 | > 5.30 | > 5.30
